This is an account of results in patent US11365200B2, “ATF3 induction compounds” (TAIPEI MEDICAL UNIVERSITY, priority 2017, dated 2022).

Data set [1] in a line: Echocardiography after transverse aortic banding (TAB) or sham surgery. In kind it is in vivo, mice. Particulars: for EF / FS / IVSd / IVSs / LVIDd / LVIDs / LVPWd / LVPWs / Heart Rate: i.p. treatment twice a week, echocardiography, mean; for Heart Rate: in bpm (unit assumed). As to the method: For echocardiography, mice were anesthetized with pentobarbital (40 mg/kg body weight, i.p.) and then measurements were taken with ultrasound equipment (ATL Philips IE33, Ultrasound Machine System, CA, U.S.A.) using a 15-MHz probe. The left ventricular posterior wall thickness (LVPW), inter-ventricular septum thickness (IVS), and left ventricular lumen diameter at both end-systolic and end-diastolic phases were measured digitally on the M-mode tracings and averaged for three cardiac cycles. Fractional shortening (FS) and ejection faction (EF) were then calculated.
Male mice (weighing 25-30 g) were anesthetized by intraperitoneal injection of chloral hydrate (125 mg/kg). The TAB procedure was performed according to the description by Hu et al. (Hu P, Zhang D, Swenson L, Chakrabarti G, Abel E D, and Litwin S E (2003) Minimally invasive aortic banding in mice: effects of altered cardiomyocyte insulin signaling during pressure overload. Am J Physiol Heart Circ Physiol 285:H1261-H1269). Echocardiography was performed at week 10 after TAB or sham surgery.
The experimental timeline for TAB and ST32da therapy was as follows. Mice were pre or post treated with intraperitoneal ST32da (0.2 mg/kg) twice a week from 4th to 10th week after TAB procedure. Echocardiographic measurements were performed on mice before (week 4) and after (week 10) ST32da, ST32db, ST32c therapy in both the procedure group and the nonprocedure group. Parameters, including interventricular septum thickness at diastole (IVSd) and systole (IVSs), left ventricular internal diameter at diastole (LVIDd) and systole (LVIDs), left ventricular posterior wall thickness at diastole (LVPWd) and systole (LVPWs), fractional shortening of left ventricle, ejection fraction of left ventricle (EF), and heart rate (HR) are shown.

Data set [2] can be described thus: Animal model for obesity (45% high fat diet). As to conditions: HFD-fed WT mice. In kind it is in vivo.
The test system of a further data set is ATF3. The data set is described as follows: ATF3 promoter luciferase platform (pGL4-ATF3 stable clones) for screening ATF3 inducers. Particulars: pGL4-ATF3 transfected 3T3-L1 preadipocytes and H9C2 cardiomyocytes. In kind it is cell-based. The source says: The disclosure is directed to chromenone derivatives used as an ATF3 inducer compound and for treating and/or preventing obesity and obesity-related disorders. The compounds of this disclosure are obtained by: (1) transfecting a special DNA sequence of ATF3 (pGL4-ATF3) into 3T3-L1 preadipocytes and H9C2 cardiomyocytes; (2) using the stable clone as a platform for screening of drug for anti-obesity, anti-atherosclerosis, anti-cardiovascular disease and promotion of white-to-brown adipocyte transdifferentiation; and (3) using the platform for special drug screening. […] The invention further finds that these compounds have an inhibitory effect on obesity and obesity-induced diabetes and a facilitatory effect on white-to-brown adipocyte transdifferentiation, thereby increasing the body energy expenditure and suppressing diabetes. In addition, these compounds also can inhibit high blood pressure or hypoxia induced cardiomyopathy to increase heart function.
The invention uses a platform of ATF3 promoter luciferase to select AT3 inducer and confirms that these selected compounds can be used as anti-obesity, anti-diabetes and anti-heart disease drugs in view of the fact that these compounds have an inhibitory effect on obesity and obesity-induced diabetes and inhibition of high blood pressure or hypoxia induced cardiomyopathy, thereby increasing heart function. The platform of ATF3 promoter luciferase is created by transfecting a DNA sequence of ATF3 (pGL4-ATF3) into 3T3-L1 preadipocytes and H9C2 cardiomyocytes and using the stable clones as a platform for screening of drugs for anti-obesity, anti-atherosclerosis, anti-cardiovascular disease and promotion of white-to-brown adipocyte transdifferentiation. […]

Data set [3] is described as follows: GTT and ITT assays in HFD-fed mice. It is filed as in vivo. As to conditions: HFD-fed WT mice, 0.5 mg/kg/day or 1 mg/kg/day. As to the method: Mice were fasted overnight for 16 h before receiving an intraperitoneal administration of 1.5 g glucose/kg body weight in saline. Blood samples were collected from the tail vein by tail snipping at 0, 15, 30, 45, 60, and 120 min, and plasma glucose and insulin levels were determined from those samples. An ITT was performed on mice after 1 h of fasting. Animals were intraperitoneally injected with 1.0 U insulin/kg body weight in saline. Blood samples were drawn from the tail vein at 0, 15, 30, 45 and 60 min for the measurement of plasma glucose levels. Plasma glucose levels in blood samples collected from tail veins were determined using a commercially available glucose meter (OneTouch Ultra blood glucose meter, LifeScan, Milpitas, Calif.). After the isolation of plasma from blood samples, insulin levels were determined by ELISA (Mercodia, Winston Salem, N.C.). To evaluate the degree of insulin resistance, values were calculated using the following homeostatic model of assessment of insulin resistance (HOMA-IR) formula: fasting glucose (in mg/dl)×fasting insulin (in mU/ml)/405.)

The mark [4] stands for this setting: TAB mice, week 4 to 10 after TAB.

For `CC1Cc2c(c3ccc4ccccc4c3oc2=O)O1` (stereo not shown) [ST32c, 2-methyl-1H-benzo[h]furo[3,2-c]chromen-11(2H)-one], in data set [1] (TAB mice), the “TAB-induced LV dilatation” value is given as “attenuated TAB-induced LV dilatation” and the contractility result was “increased contractility”. In data set [1] (setting [4]), this compound showed an EF of 86.500%, an FS of 54.500%, an IVSd of 1.350 mm and an IVSs of 1.950 mm. In addition, in data set [1] (setting [4]), the LVIDd is 3.350 mm, the LVIDs is 1.700 mm, the LVPWd came to 1.350 mm and the LVPWs was 2.000 mm. Also, the “Heart Rate” value in data set [1] (setting [4]) came out at 340.000. In data set [1] (sham mice, week 4 to 10), this compound gave an EF of 79.000%, an FS of 41.333%, an IVSd of 0.800 mm and an IVSs of 1.367 mm. Further, in data set [1] (sham mice, week 4 to 10), the LVIDd came out at 3.733 mm, the LVIDs was determined as 2.200 mm, the LVPWd is on record as 0.800 mm and the LVPWs turned out to be 1.333 mm. For the same compound, the “Heart Rate” value in data set [1] (sham mice, week 4 to 10) was 318.667. Also, in data set [2] (0.5 mg/kg/day, FIG. 7), the “HFD-induced obesity (body weight)” value is “could prevent HFD-induced obesity”. In the data set with ATF3, the “ATF3 expression (screening for ATF3 inducers)” value (“ATF3 expression” below) is recorded as “induction of the above-mentioned ATF3 expression”.
In the case of `C[C@@H]1Oc2c(c(=O)oc3c2ccc2ccccc23)[C@H]1C` [ST32da, (1R,2S)-1,2-dimethyl-1H-benzo[h]furo[3,2-c]chromen-11(2H)-one], in data set [1] (TAB mice), the “TAB-induced LV dilatation” value is recorded as “attenuated TAB-induced LV dilatation” and the contractility result is reported as “increased contractility”. Further, in data set [1] (setting [4]), the EF is recorded as 75.000%, the FS is 41.000%, the IVSd was determined as 1.200 mm and the IVSs stood at 1.600 mm. In data set [1] (setting [4]), this compound registered an LVIDd of 3.600 mm, an LVIDs of 2.500 mm, an LVPWd of 1.000 mm and an LVPWs of 1.600 mm. In data set [1] (setting [4]), the “Heart Rate” value is given as 294.000. In data set [1] (sham mice, week 4 to 10), the EF is reported as 81.000%, the FS came out at 44.000%, the IVSd is reported as 0.767 mm and the IVSs was determined as 1.400 mm. Further, in data set [1] (sham mice, week 4 to 10), the LVIDd worked out at 3.833 mm, the LVIDs is listed as 2.133 mm, the LVPWd was 0.800 mm and the LVPWs turned out to be 1.400 mm. Further, the “Heart Rate” value in data set [1] (sham mice, week 4 to 10) was 303.667. Moreover, the “HFD-induced obesity (percent of initial body weight)” value in data set [2] (0.5 mg/kg/day or 1 mg/kg/day i.p., FIG. 5A left) is reported as “could prevent HFD-induced obesity”. The “adipose depot mass including iWAT, eWAT, mWAT, rWAT and BAT” value in data set [2] (0.5 mg/kg/day or 1 mg/kg/day i.p., FIG. 5B) is given as “decreased adipose depot mass”. Also, the liver weights entry in data set [2] (0.5 mg/kg/day or 1 mg/kg/day i.p., FIG. 5C) is on record as “did not affect liver weights”. The “glucose tolerance (glucose tolerance test)” value in data set [3] (FIG. 5D) was “enhanced glucose tolerance”. Also, in data set [3] (FIG. 5E), the “insulin sensitivity (insulin tolerance test)” value was “improved inulin sensitivity”. Also, the “ATF3 expression” value with ATF3 is given as “induction of the above-mentioned ATF3 expression”.
In the case of `C[C@@H]1c2c(c3ccc4ccccc4c3oc2=O)O[C@@H]1C` [ST32db, (1R,2R)-1,2-dimethyl-1H-benzo[h]furo[3,2-c]chromen-11(2H)-one], in data set [1] (TAB mice), the “TAB-induced LV dilatation” value is “attenuated TAB-induced LV dilatation” and the contractility entry is “increased contractility”. In addition, in data set [1] (setting [4]), the EF came out at 84.750%, the FS was 48.250%, the IVSd came out at 1.050 mm and the IVSs came out at 1.750 mm. Moreover, in data set [1] (setting [4]), the LVIDd is recorded as 3.600 mm, the LVIDs was 1.850 mm, the LVPWd is recorded as 1.050 mm and the LVPWs came to 1.700 mm. Besides, in data set [1] (setting [4]), the “Heart Rate” value is on record as 301.000. In data set [1] (sham mice, week 4 to 10), this compound displayed an EF of 81.667%, an FS of 44.667%, an IVSd of 0.800 mm and an IVSs of 1.533 mm. In data set [1] (sham mice, week 4 to 10), this compound registered an LVIDd of 4.067 mm, an LVIDs of 2.233 mm, an LVPWd of 0.800 mm and an LVPWs of 1.433 mm. Also, the “Heart Rate” value in data set [1] (sham mice, week 4 to 10) was determined as 318.500. Further, the “HFD-induced obesity (body weight)” value in data set [2] (1 or 10 mg/kg/day, FIG. 6A) is “could prevent HFD-induced obesity”. For the same compound, the “ATF3 expression” value with ATF3 is reported as “induction of the above-mentioned ATF3 expression”.
